We go through one compound from patent publication US11344537B2 (BIOVERSYS AG, priority 2019, dated 2022).

In brackets after ≈: the same amount, converted by molar mass. Like-named read-outs stand apart in the source and are kept apart here. Where only a bound is given, the exact number is not on record here.

Series [1] in a line: Preliminary assessment of solubility in solvents (24 h). The series is classed as physicochemical. The settings on record: thermodynamic from solid, 24 h stirring at room temperature, read-out: Solubility (mg/ml) at 24 h. The method, then: After 24 h stirring at room temperature, samples were centrifuged, and the supernatant analyzed by HPLC.
For series [2] the following is noted: in Ethanol (literature data); cited from earlier work.
The conditions of series [3]: HIV-infected patients, 300 mg/day (Hafner et al, 1998); cited from earlier work.
For series [4] the following is noted: human, in vivo, cited from earlier work.
Series [5] can be described thus: Dissolution of rifabutin in DMI or DMI/water with acid and dilution with aqueous solutions. The series is classed as physicochemical. The settings on record: in DMI without water or acid; longer than plausibly acceptable.

For the compound `CO[C@H]1/C=C/O[C@@]2(C)Oc3c(C)c(O)c4c(c3C2=O)C2=NC3(CCN(CC(C)C)CC3)NC2=C(NC(=O)/C(C)=C\C=C\[C@H](C)[C@H](O)[C@@H](C)[C@@H](O)[C@@H](C)[C@H](OC(C)=O)[C@@H]1C)C4=O` [rifabutin], the solubility at 24 h in series [1] (aqueous buffer, in Acetate buffer pH 4 (USP)) is 11.3 mg/mL (≈ 13300 µM); in series [1] (aqueous buffer, in Borate buffer pH 10 (USP)), 1.9 mg/mL (≈ 2240 µM); in series [1] (aqueous buffer, in Phosphate buffer pH 6 (USP)) it was 0.3 mg/mL (≈ 354 µM); in series [1] (aqueous buffer, in Phosphate buffer pH 8 (USP)), 0.2 mg/mL (≈ 236 µM); in series [1] (aqueous with cosolvent or surfactant or cyclodextrin, in Povidone K12 (5% w/w in water)), 0.5 mg/mL (≈ 590 µM); in series [1] (aqueous with cosolvent or surfactant or cyclodextrin, in Tween 80 (1% w/w in water)), 1.3 mg/mL (≈ 1530 µM). The solubility at 24 h was ≥ 245 mg/mL in series [1] (organic solvent or mixture, in Dimethyl isosorbide (DMI)); ≥ 204 mg/mL in series [1] (organic solvent or mixture, in Dimethylacetamide (DMA)); 0.4 mg/mL (≈ 472 µM) in series [1] (organic solvent or mixture, in Glycerol); ≥ 190 mg/mL in series [1] (organic solvent or mixture, in N-Methyl-2-pyrrolidone (NMP)); ≥ 110 mg/mL in series [1] (organic solvent or mixture, in Polyethylene glycol 400 (PEG400)); ≥ 92 mg/mL in series [1] (organic solvent or mixture, in Propylene glycol). Besides, the solubility at 24 h in series [1] (organic solvent or mixture, in Transcutol HP) was ≥ 206 mg/mL; in series [1] (saline or isotonic, in Saline 0.9%), 0.3 mg/mL (≈ 354 µM). Further, the “Solubility (mg/ml) at 24 h” value in series [2] was 30 mg/mL (≈ 35400 µM). The “AUC at steady state” value in series [3] was 8600 ± 8200 ng·h/mL. Further, the “Cmax at steady state” value in series [3] is 590 ± 330 ng/mL. Also, the “time at which Cmax is attained after oral administration” value in series [4] (300 mg) was “approximately 3 hours”. Moreover, the “mean Cmax” value in series [4] (po, 300 mg) was 375 ng/mL. Moreover, the Cmax in series [4] (po, 600 mg) was 400 to 700 ng/mL. In addition, the oral dose absorbed result in series [4] was “at least 53%”. In addition, the “Dissolution of rifabutin in DMI, concentration” value in series [5] is > 250 mg/mL.
